For one test, the target named is human FLAP (Homo sapiens (Human), UniProt P20292). Kind of test: FLAP binding assay (HTRF format). The note with it: human FLAP-containing Sf-9 membranes, wild type; average of runs. The method, then: (§1) The ability of the compounds of the present invention to treat a FLAP-mediated disease and/or disorder, or associated symptoms or complications thereof, was determined using the following procedures. Binding assay data represent the average value obtained from two different assay plates, with samples run in duplicate on each plate. Human whole blood assay data represent a single replicate on an assay plate using whole blood from at least one healthy donor.
human FLAP, sequence (P20292 whole entry): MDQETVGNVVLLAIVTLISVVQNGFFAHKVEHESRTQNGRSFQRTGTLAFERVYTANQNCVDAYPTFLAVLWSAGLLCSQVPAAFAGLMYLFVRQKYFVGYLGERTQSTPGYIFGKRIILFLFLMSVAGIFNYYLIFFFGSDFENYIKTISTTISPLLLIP
The assay below is used to test the modulatory activity of compounds against FLAP. Human and mouse FLAP-encoding DNA was amplified by polymerase chain reaction and cloned into pFastBac1 (Invitrogen) with a NH2-terminal 6-His tag for expression in Spodoptera frugiperda (Sf-9) cells. FLAP-containing membranes were prepared as was a FITC-labeled FLAP modulator (3-(3-(tert-butylthio)-1-(4-chlorobenzyl)-5-(quinolin-2-ylmethoxy)-1H-indol-2-yl)-2,2-dimethylpropanoic acid). The FLAP binding assay is performed in HTRF format (homogeneous time resolved fluorescence). […] The reaction is allowed to proceed for two hours after which the plate is read on an Envision plate reader in HTRF mode. Data are expressed as a HTRF ratio.
For human FLAP binding assays, data are analyzed with 3DX Explorer software. […] For analysis, data from multiple runs are averaged and each compound may be tested in 2 to 20 runs. Each run comprises two plates and each plate includes duplicates. Data from each plate is averaged and data are imported into 3DX. The data from multiple runs are aggregated as the average of duplicates of the calculated ratios in order to calculate Ki and IC50 values. Numbers in parentheses are the number of runs for the assay.
(Time-resolved FRET reads energy transfer from a long-lived donor to a nearby acceptor.)

Test [1] deals with leukotriene pathway in human whole blood. The experiment in a line: Human whole blood assay (LTB4, A23187-stimulated). In kind it is cell-based. To be noted: human whole blood diluted 1:1 in RPMI, calcium ionophore A23187 7 μg/mL, 30 min. The protocol:
as §1
An in vitro cellular assay was performed using human whole blood collected in heparin-containing tubes, which was used to test the ability of compounds to modulate the leukotriene pathway in human whole blood. The blood was diluted 1:1 in RPMI medium, pre-incubated for 15 min at 37° Celsius with test compounds at various concentrations, and then stimulated with calcium ionophore, A23187 (7 μg/mL), for 30 min at 37° Celsius. The samples were then centrifuged and plasma was removed. The plasma was diluted in assay buffer and LTB4 levels were measured using a commercial kit (Enzo Life Sciences). The concentration of each compound that was required for half-maximal inhibition (modulation) of […] (IC50) was calculated by a 4-parameter equation using the program GraphPad Prism (GraphPad software). For analysis, data are imported into 3DX and aggregated as the average of duplicates of the calculated ratios in order to calculate Ki and IC50 values. Numbers in parentheses are the number of runs for the assay.

The structures appear in SMILES notation. Where only a bound is given, the exact number is not on record here.

In turn, `Cc1cnc(COc2ccc3nc(C4CCCC[C@H]4C(=O)O)n(Cc4ccc(N5CCC(C(F)(F)F)CC5)cc4F)c3c2)c(F)c1` (mixture of isomers) [Example 192, racemic cis-2-(6-[(3-Fluoro-5-methylpyridin-2-yl)methoxy]-1-{2-fluoro-4-[4-(trifluoromethyl)piperidin-1-yl]benzyl}-1H-benzimidazol-2-yl)cyclohexanecarboxylic acid] registered a Ki at human FLAP of 0.95 nM. Besides, the IC50 in test [1] (Homo sapiens, 0.5 h) amounted to 110 nM.
Taken in the same sequence, the figures for `COc1ncc(-c2cccc(Cn3c(C4CCCC[C@H]4C(=O)O)nc4ccc(OCc5ccc(C)cn5)cc43)c2)cn1` (mixture of isomers) [Example 195, racemic cis-2-{1-[3-(2-Methoxypyrimidin-5-yl)benzyl]-6-[(5-methylpyridin-2-yl)methoxy]-1H-benzimidazol-2-yl}cyclohexanecarboxylic acid] were 19 nM and 1430 nM.
`Cc1ccc(COc2ccc3nc(C4CCCC[C@H]4C(=O)O)n(Cc4cccc(C)c4)c3c2)nc1` (mixture of isomers) [Example 200, racemic trans-2-{1-(3-Methylbenzyl)-6-[(5-methylpyridin-2-yl)methoxy]-1H-benzimidazol-2-yl}cyclohexanecarboxylic acid]: the Ki at human FLAP worked out at 30 nM. The IC50 in test [1] (Homo sapiens, 0.5 h) stood at 3140 nM.
`Cc1ccc(COc2ccc3nc(C4CCCC[C@H]4C(=O)O)n(Cc4cc(Br)ccc4F)c3c2)nc1` (mixture of isomers) [Example 218, racemic trans-2-{1-(5-Bromo-2-fluorobenzyl)-6-[(5-methylpyridin-2-yl)methoxy]-1H-benzimidazol-2-yl}cyclohexanecarboxylic acid]: the IC50 in test [1] (Homo sapiens, 0.5 h) was 4170 nM.
Still for that read-out and setting: the same measure for `Cc1ccc(COc2ccc3nc(C4CCCC[C@H]4C(=O)O)n(Cc4cccc(N5CCC(F)(F)C5)c4)c3c2)nc1` (mixture of isomers) [Example 220, racemic cis-2-{1-[3-(3,3-Difluoropyrrolidin-1-yl)benzyl]-6-[(5-methylpyridin-2-yl)methoxy]-1H-benzimidazol-2-yl}cyclohexanecarboxylic acid]: 650 nM.
In the case of `Cc1ccc(COc2ccc3nc(C4CCCC[C@H]4C(=O)O)n(Cc4cccc(N5CCCCC5)c4)c3c2)nc1` (mixture of isomers) [Example 223, racemic cis-2-{6-[(5-Methylpyridin-2-yl)methoxy]-1-(3-piperidin-1-ylbenzyl)-1H-benzimidazol-2-yl}cyclohexanecarboxylic acid], the IC50 in test [1] was 320 nM.
Still for that read-out and setting: the figure for `Cc1ccc(COc2ccc3nc(C4CCCC[C@H]4C(=O)O)n(Cc4cccc(N5CCCCC5)c4)c3c2)nc1` (mixture of isomers) [Example 224, racemic trans-2-{6-[(5-Methylpyridin-2-yl)methoxy]-1-(3-piperidin-1-ylbenzyl)-1H-benzimidazol-2-yl}cyclohexanecarboxylic acid] is 2170 nM.
As for `Cc1ccc(COc2ccc3nc(C4[C@H](C(=O)O)C4(C)C)n(Cc4cc(Br)ccc4F)c3c2)nc1` (mixture of isomers) [Example 227, racemic cis-3-{1-(5-Bromo-2-fluorobenzyl)-6-[(5-methylpyridin-2-yl)methoxy]-1H-benzimidazol-2-yl}-2,2-dimethylcyclopropanecarboxylic acid], the IC50 in test [1] (Homo sapiens, 0.5 h) was found to be 4520 nM.
`Cc1ccc(COc2ccc3nc([C@H]4CCCC[C@H]4C(=O)O)n(Cc4cc(Br)ccc4F)c3c2)nc1` (racemic) [Example 229, racemic-cis-2-{1-(5-Bromo-2-fluorobenzyl)-6-[(5-methylpyridin-2-yl)methoxy]-1H-benzimidazol-2-yl}cyclohexanecarboxylic acid]: in test [1], the concentration for half-maximal inhibition (IC50) was 6640 nM.
For the molecule `CCC(CC)(Cc1nc2ccc(OCc3ccn(C)n3)cc2n1Cc1cc(Br)ccc1F)C(=O)O` [Example 234, 2-({1-(5-Bromo-2-fluorobenzyl)-6-[(1-methyl-1H-pyrazol-3-yl)methoxy]-1H-benzimidazol-2-yl}methyl)-2-ethylbutanoic acid], the Ki on human FLAP was > 10000 nM.

One may read the Ki as the dissociation constant of the complex between target and ligand, obtained from inhibition or displacement. Read a high Ki as a looser hold on the target. As usually defined, the IC50 is the concentration needed to halve the response being measured.
